Experimental findings from ChEMBL document CHEMBL4482311, “Modulators of Prostate-Specific G-Protein Receptor (PSGR/OR51E2) and Methods of Using Same” (2018) are described below.

Assay [1] addresses T1, Olfactory receptor 51E2 (Homo sapiens) (UniProt Q9H255).
T1 sequence (whole entry): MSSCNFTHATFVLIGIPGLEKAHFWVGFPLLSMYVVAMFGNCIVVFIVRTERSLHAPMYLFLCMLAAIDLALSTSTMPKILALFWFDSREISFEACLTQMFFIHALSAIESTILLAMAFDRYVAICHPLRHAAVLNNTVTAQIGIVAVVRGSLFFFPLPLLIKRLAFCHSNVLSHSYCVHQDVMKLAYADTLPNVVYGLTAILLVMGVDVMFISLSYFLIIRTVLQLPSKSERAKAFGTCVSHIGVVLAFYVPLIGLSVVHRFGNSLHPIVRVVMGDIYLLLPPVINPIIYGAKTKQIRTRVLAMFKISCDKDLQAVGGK
The experiment in a line: Agonist activity at PSGR/OR51E2 (unknown origin) expressed in human Hana3A cells co-transfected with CRE-Luc by luciferase reporter gene assay relative to control 1 mM propionic acid. The assay is classed as functional, cell-based. In general terms: In a reporter assay the amount or activity of a reporter protein is the signal.

For the next assay, the target named is T2, Olfactory receptor 51E2 (Homo sapiens, UniProt Q9H255).
T2 sequence (Q9H255 whole entry): T1 sequence (whole entry)
The experiment in a line: Agonist activity at PSGR/OR51E2 (unknown origin) expressed in human Hana3A cells co-transfected with CRE-Luc by luciferase reporter gene assay. The assay is classed as functional, cell-based.

For the compound `COc1cc(CCC(=O)CC(=O)CCc2ccc(O)c(OC)c2)ccc1O`, the Ratio in assay [1] is 0.284. One may read the EC50 as the concentration that produces a half-maximal response. Read a high EC50 as lower potency in that assay. For the compound `Nc1nc2[nH]c(O)nc2c(=O)[nH]1`, at Olfactory receptor 51E2, the EC50 turned out to be 0.00044 nM. For the compound H-RPPGFSPFR-OH, in assay [1], the Ratio came out at 0.762.

Consider `O=C1CN=CN1`, for which the Ratio in assay [1] came out at 0.678. On to H-RPPGFSPFR-OH [BRADYKININ], for which the EC50 on Olfactory receptor 51E2 was determined as 1.3 nM. For `Oc1ccc(-c2[o+]c3cc(O)cc(O)c3cc2O)cc1`, in assay [1], the Ratio is 0.621.
